According to US6448027B1, “Method for specific measurement of acid phosphatase derived from osteoclasts” (FALCO biosystems Ltd., priority 1999, dated 2002):

How the values were obtained:
[1] = test system: Band 5b tartrate-resistant acid phosphatase; assay: Effects of other materials on Band 5b TrACP activity in serum of healthy subjects; assay type: biochemical, human; details: for Band 5b TrACP activity (%): control activity taken as 100%, serum of healthy subjects; for Effect of addition on Band 5b tartrate-resistant acid phosphatase activity: summary in words of Table 1, 1-10 mmol/L
Protocol: (1) Formulation of Compositions
(a) A Composition Comprising Tartaric Acid and Heparin (Reaction Buffer Solution 1)
(b) A composition comprising tartaric acid, heparin and fluoride (reaction buffer solution 2)
(2) Measurement (an Example Using Conventional Automatic Analyzer, Cobas® Fara, Baxter Ltd.)
(§1) To a cuvette is added 150 µl of reaction buffer solution 1 or reaction buffer solution 2 and, after 20 seconds, 15 µl of sample (serum) is added. The mixture is incubated at 37° C. for 5 minutes and then 60 µl of the substrate solution is added to start the enzyme reaction (the reaction mixture is 15 times as much as the amount of the sample (=(150 μ1+15 μ1+60 μ1)/15 μ1). The change in absorbance at 340 nm is monitored at 20 seconds intervals for 5 minutes. The amount of change in absorbance per one minute (the amount of change in absorbance in the enzyme reaction per unit time) is obtained from a linear part of the change in absorbance. The amount of change in absorbance per one minute in blank is obtained by the same procedure as the above except for adding physical saline or purified water instead of the sample.
The activity of osteoclast-derived acid phosphatase located at Band 5b is obtained by subtracting the activity value obtained by using the composition comprising tartaric acid, heparin and fluoride of the reaction buffer solution 2 from the activity value obtained by using the composition comprising tartaric acid and the inhibitor to acid phosphatases located at Band 5 other than Band 5b (in Examples, heparin is used) of the reaction buffer solution 1. […] The concentration, formulation, amount and the like of the above composition are adjusted according to a particular kind of automatic analyzer and measurement (kind and concentration of the substrate and the like) used.
(§2) Activity (U/L)=[(amount of change in absorbance per unit time in enzyme reaction−amount of change in absorbance in blank)×liquid amount on enzyme reaction×10^6]÷[sample amount×molar absorbance coefficient×cell optical path length]

[2] = test system: Band 5b tartrate-resistant acid phosphatase; details: read-out: Km value for DCAPP of Band 5b tartrate-resistant acid phosphatase activity; substrate DCAPP
Protocol: as §1, with “sample. […]” for “sample.”
as §2

[3] = biological target: T1, Band 5a tartrate-resistant acid phosphatase (Homo sapiens, UniProt P13686); assay: Effect of heparin on Band 5a tartrate-resistant acid phosphatase (CM-Sepharose peak III); assay type: biochemical
T1 construct: These fractions containing peak III and IV were used as Band 5a and Band 5b tartrate-resistant acid phosphatase, respectively; from tissue; host or cells: children's serum, CM-Sepharose cation-exchange fraction (peak III)
T1 sequence (P13686 22-325): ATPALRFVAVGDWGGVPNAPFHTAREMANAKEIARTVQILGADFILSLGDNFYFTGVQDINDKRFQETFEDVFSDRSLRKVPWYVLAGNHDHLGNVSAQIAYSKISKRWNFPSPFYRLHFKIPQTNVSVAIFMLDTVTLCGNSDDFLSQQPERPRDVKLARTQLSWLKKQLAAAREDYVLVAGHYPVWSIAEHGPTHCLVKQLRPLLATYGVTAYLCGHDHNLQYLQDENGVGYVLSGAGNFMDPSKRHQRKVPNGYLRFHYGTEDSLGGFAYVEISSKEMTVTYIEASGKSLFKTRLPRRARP
Protocol: (§3) The CM-Sepharose was packed into glass tubing (0.9 cm i.d.; length, 60 cm) and washed with acetate buffer (10 mmol/L, pH 5.0). The serum sample (children's serum, 5 ml) was adjusted to pH 5.0 by adding acetic acid and the coagulated proteins were removed by centrifugation at 20,000×g for 15 minutes. The supernatant fraction was passed through the column at 0.5 ml/minute. The enzyme, which was retained on the column, was then eluted with a liner gradient of sodium chloride: 0 to 1 mol/L in elution buffer (299 ml, acetate buffer, 10 mmol/L, pH 5.0). The fractionated serum was subjected to the method described in the above general method to measure tartrate-resistant fluoride-sensitive acid phosphatase activity (the value obtained by subtracting the value obtained with measurement solution 2 from the value obtained with measurement solution 1). Acid phosphatase activity was measured similarly by using measurement solution added polybrene which was antagonist of heparin instead of heparin.
These fractions containing peak III and IV were used as Band 5a and Band 5b tartrate-resistant acid phosphatase, respectively, in the following Examples. […]
Tartrate-resistant fluoride-sensitive acid phosphatase activity was measured using Band 5a and 5b tartrate-resistant acid phosphatases separated by CM-Sepharose to determine the effect of pH on activity. […]

[4] = test system: bone extract; assay: Effect of heparin on bone extract acid phosphatase activity; assay type: biochemical; details: FIG. 3; bovine tibia extract
Protocol: Bone extract was prepared according to the method described in Nakanishi, M., Yoh, K., Uchida, K., Maruo, S., Matuoka, A., Clin. Chem., 1998, 44, 221-225. Bovine tibia after removal of soft tissue was cut into small cubes. The marrow and blood were removed, pulverized and homogenized in a solution containing Triton x-100, potassium chloride, phenylmethylsulfonyl fluoride, benzamidine and aminocaproic acid. The extract was collected by centrifugation at 10,000×g for 20 minutes at 4° C. and stored at −80° C. until use.

[5] = test system: serum; assay: Effect of heparin on serum acid phosphatase activity; assay type: biochemical, human; details: FIG. 3
Protocol: Blood samples collected from 516 healthy subjects aged 5 to 79 years (210 males and 306 females) were coagulated at room temperature for 2 to 4 hours and centrifuged at 1,000×g at room temperature for 10 minutes. Serum thus separated was transferred into 1.5 ml tubes and stored at −80° C. until use.

[6] = test system: tartrate-resistant fluoride-sensitive acid phosphatases other than Band 5b; assay: TrFsACP activity of CM-Sepharose fractions of serum with heparin or polybrene in the reaction buffer; assay type: biochemical, human; details: CM-Sepharose fractions of children's serum; FIG. 1
Protocol: Using CM-Sepharose, Band 5a and Band 5b tartrate-resistant acid phosphatase were separated and collected.
as §3
When polybrene was added to the reaction buffer, at least four peaks of tartrate-resistant fluoride-sensitive acid phosphatase activity were observed (FIG. 1, I, II, III and IV). But only one peak (IV) was observed when heparin was added to the reaction buffer. […]

[7] = compound 1 mmol/L in reaction buffer solution
[8] = compound 5 mmol/L in reaction buffer solution
[9] = compound 10 mmol/L in reaction buffer solution

Row | Band 5b TrACP activity (%) [1, 7] [%] | Band 5b TrACP activity (%) [1, 8] [%] | Band 5b TrACP activity (%) [1, 9] [%] | Effect of addition on Band 5b tartrate-resistant acid phosphatase activity [1] | Effect of heparin on Band 5a tartrate-resistant acid phosphatase ([3]; FIG. 3) | Band 5a tartrate-resistant acid phosphatase activity after addition of heparin ([3]; pH 6.6, 0.05% heparin in reaction mixture, FIG. 4) | Effect of heparin on bone extract [4] | Effect of heparin on serum [5] | Compound | Km [2] [mM] | Effect of heparin on tartrate-resistant fluoride-sensitive acid phosphatases other than Band 5b [6]
1 | 97 | 103 | 103 | no effect |  |  |  |  | O=C1O[C@H]([C@@H](O)CO)C(O)=C1O [Ascorbic acid] |  | 
2 | 93 | 69 | 57 | inhibited enzyme activity |  |  |  |  | O[C@H](CS)[C@H](O)CS (racemic) [Dithiothreitol] |  | 
3 | 95 | 96 | 93 | no effect |  |  |  |  | O=C(O)CN(CCN(CC(=O)O)CC(=O)O)CC(=O)O [EDTA] |  | 
4 |  |  |  |  |  |  |  |  | CC(=O)c1cc(Cl)c(OP(=O)(O)O)c(Cl)c1 [DCAPP, 2,6-dichloro-4-acetylphenyl phosphate] | 4.7 | 
5 |  |  |  |  | significantly inhibited | zero level | slightly inhibited | slightly inhibited | heparin |  | inhibits
